BindingDB's records for doi:10.1021/acsmedchemlett.0c00047 (Centre of Experimental Medicine, 2020)

assay: Inhibition of SERCA1 in rat INS-1E cells assessed as reduction in cell viability incubated for 24 hrs by MTT assay

SMILES	IC50
Cc1cc2c3c(c1)-c1c(O)cc(-c4cc5ccc(O)cc5o4)cc1O[C@@]3(c1ccc(O)cc1O)Oc1cc(O)ccc1-2	18.2 µM
COc1cc(O)c([C@@H]2CC(=O)c3c(O)cc(O)cc3O2)cc1C/C=C(\C)CCC=C(C)C	64.8 µM
CC1(C)Oc2cc3oc(-c4cc(O)cc(O)c4)cc3cc2CC1O (stereo not given) [Moracin P]	109 µM
CC(C)=CCc1c(-c2ccc(O)cc2O)oc2c3c(cc(O)c2c1=O)OC(C)(C)C=C3 [Morusin, 3]	28.7 µM
CC(C)(O)C1Cc2cc3cc(-c4cc(O)cc(O)c4)oc3cc2O1 (stereo not given) [moracin O]	111 µM
